# Experimental data as given in patent publication US9688653B2, “Ethoxyphenyl thienyl compounds and methods for the treatment of bacterial infections” (Duke University, priority 2013, dated 2017).
# What was measured:
# panel of 68 receptors [1] = target: panel of 68 receptors (Homo sapiens, UniProt P02708); conditions: Nicotinic Acetylcholine α1, Bungarotoxin, hum, 10 μM
# panel of 68 receptors [2] = target: panel of 68 receptors (Homo sapiens, UniProt P03372); conditions: Estrogen ERα, hum, 10 μM
# panel of 68 receptors [3] = target: panel of 68 receptors (Homo sapiens, UniProt P04150); conditions: Glucocorticoid, hum, 10 μM
# panel of 68 receptors [4] = target: panel of 68 receptors (Homo sapiens, UniProt P08588); conditions: Adrenergic β1, hum, 10 μM
# panel of 68 receptors [5] = target: panel of 68 receptors (Homo sapiens, UniProt P08908); conditions: Serotonin (5-Hydroxytryptamine) 5-HT1A, hum, 10 μM
# panel of 68 receptors [6] = target: panel of 68 receptors (Homo sapiens, UniProt P08913); conditions: Adrenergic α2A, hum, 10 μM
# panel of 68 receptors [7] = target: panel of 68 receptors (Homo sapiens, UniProt P11229); conditions: Muscarinic M1, hum, 10 μM
# panel of 68 receptors [8] = target: panel of 68 receptors (Homo sapiens, UniProt P20309); conditions: Muscarinic M3, hum, 10 μM
# panel of 68 receptors [9] = target: panel of 68 receptors (Homo sapiens, UniProt P21554); conditions: Cannabinoid CB1, hum, 10 μM
# panel of 68 receptors [10] = target: panel of 68 receptors (Homo sapiens, UniProt P21728); conditions: Dopamine D1, hum, 10 μM
# panel of 68 receptors [11] = target: panel of 68 receptors (Homo sapiens, UniProt P24530); conditions: Endothelin ETB, hum, 10 μM
# panel of 68 receptors [12] = target: panel of 68 receptors (Homo sapiens, UniProt P25021); conditions: Histamine H2, hum, 10 μM
# panel of 68 receptors [13] = target: panel of 68 receptors (Homo sapiens, UniProt P25101); conditions: Endothelin ETA, hum, 10 μM
# panel of 68 receptors [14] = target: panel of 68 receptors (Homo sapiens, UniProt P25103); conditions: Tachykinin NK1, hum, 10 μM
# panel of 68 receptors [15] = target: panel of 68 receptors (Homo sapiens, UniProt P29274); conditions: Adenosine A2A, hum, 10 μM
# panel of 68 receptors [16] = target: panel of 68 receptors (Homo sapiens, UniProt P30411); conditions: Bradykinin B2, hum, 10 μM
# panel of 68 receptors [17] = target: panel of 68 receptors (Homo sapiens, UniProt P30542); conditions: Adenosine A1, hum, 10 μM
# panel of 68 receptors [18] = target: panel of 68 receptors (Homo sapiens, UniProt P35367); conditions: Histamine H1, hum, 10 μM
# panel of 68 receptors [19] = target: panel of 68 receptors (Homo sapiens, UniProt P35408); conditions: Prostanoid EP4, hum, 10 μM
# panel of 68 receptors [20] = target: panel of 68 receptors (Homo sapiens, UniProt P35462); conditions: Dopamine D3, hum, 10 μM
# panel of 68 receptors [21] = target: panel of 68 receptors (Homo sapiens, UniProt P41145); conditions: Opiate κ(OP2, KOP), hum, 10 μM
# panel of 68 receptors [22] = target: panel of 68 receptors (Homo sapiens, UniProt P41595); conditions: Serotonin (5-Hydroxytryptamine) 5-HT2B, hum, 10 μM
# panel of 68 receptors [23] = target: panel of 68 receptors (Homo sapiens, UniProt P46098); conditions: Serotonin (5-Hydroxytryptamine) 5-HT3, hum, 10 μM
# panel of 68 receptors [24] = target: panel of 68 receptors (Homo sapiens, UniProt P48039); conditions: Melatonin MT1, hum, 10 μM
# panel of 68 receptors [25] = target: panel of 68 receptors (Homo sapiens, UniProt P49146); conditions: Neuropeptide Y Y2, hum, 10 μM
# panel of 68 receptors [26] = target: panel of 68 receptors (Homo sapiens, UniProt Q01959); conditions: Transporter, Dopamine (DAT), hum, 10 μM
# panel of 68 receptors [27] = target: panel of 68 receptors (Homo sapiens, UniProt Q99720); conditions: Sigma σ1, hum, 10 μM
# panel of 68 receptors [28] = target: panel of 68 receptors (Homo sapiens, UniProt Q9UBS5); conditions: GABAB1A, hum, 10 μM
# panel of 68 receptors [29] = target: panel of 68 receptors (Homo sapiens, UniProt Q9Y271); conditions: Leukotriene, Cysteinyl CysLT1, hum, 10 μM
# panel of 68 receptors [30] = target: panel of 68 receptors (Homo sapiens, UniProt Q9Y5N1); conditions: Histamine H3, hum, 10 μM
# panel of 68 receptors [31] = target: panel of 68 receptors (Mus musculus, UniProt P13504); conditions: Interleukin IL-1, mouse, 10 μM
# panel of 68 receptors [32] = target: panel of 68 receptors (Rattus norvegicus, UniProt P15207); conditions: Androgen (Testosterone) AR, rat, 10 μM
# panel of 68 receptors [33] = target: panel of 68 receptors (Rattus norvegicus, UniProt P15823); conditions: Adrenergic α1B, rat, 10 μM
# panel of 68 receptors [34] = target: panel of 68 receptors (Rattus norvegicus, UniProt Q02294); conditions: Calcium Channel N-Type, rat, 10 μM
# Chain of panel of 68 receptors (Homo sapiens, UniProt Q01959) (Q01959 whole entry): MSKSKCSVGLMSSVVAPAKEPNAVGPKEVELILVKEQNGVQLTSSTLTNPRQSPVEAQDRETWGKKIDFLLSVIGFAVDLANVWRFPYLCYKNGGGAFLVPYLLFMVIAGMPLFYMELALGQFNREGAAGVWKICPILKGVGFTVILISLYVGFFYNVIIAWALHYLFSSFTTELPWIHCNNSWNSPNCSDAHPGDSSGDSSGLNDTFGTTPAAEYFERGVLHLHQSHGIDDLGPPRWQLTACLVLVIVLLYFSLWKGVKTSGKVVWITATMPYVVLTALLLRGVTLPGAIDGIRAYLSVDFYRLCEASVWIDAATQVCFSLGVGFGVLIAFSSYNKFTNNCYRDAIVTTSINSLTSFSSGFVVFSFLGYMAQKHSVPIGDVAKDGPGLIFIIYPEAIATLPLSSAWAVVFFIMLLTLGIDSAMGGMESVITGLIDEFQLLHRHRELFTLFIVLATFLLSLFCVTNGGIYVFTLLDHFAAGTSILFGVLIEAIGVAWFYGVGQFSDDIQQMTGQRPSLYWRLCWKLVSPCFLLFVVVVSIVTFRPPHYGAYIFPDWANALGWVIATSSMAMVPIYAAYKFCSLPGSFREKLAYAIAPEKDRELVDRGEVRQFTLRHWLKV
# Chain of panel of 68 receptors (Homo sapiens, UniProt P25021) (P25021 whole entry): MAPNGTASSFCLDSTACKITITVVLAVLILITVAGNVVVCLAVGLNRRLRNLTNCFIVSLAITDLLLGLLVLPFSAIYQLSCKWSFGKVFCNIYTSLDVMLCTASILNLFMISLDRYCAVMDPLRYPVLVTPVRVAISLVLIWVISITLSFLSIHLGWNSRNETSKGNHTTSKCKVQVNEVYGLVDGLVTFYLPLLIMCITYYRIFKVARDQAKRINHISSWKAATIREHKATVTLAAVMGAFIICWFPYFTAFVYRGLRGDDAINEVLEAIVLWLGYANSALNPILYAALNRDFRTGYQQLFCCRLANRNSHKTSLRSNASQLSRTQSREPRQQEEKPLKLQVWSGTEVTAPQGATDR
# Chain of panel of 68 receptors (Homo sapiens, UniProt P08908) (P08908 whole entry): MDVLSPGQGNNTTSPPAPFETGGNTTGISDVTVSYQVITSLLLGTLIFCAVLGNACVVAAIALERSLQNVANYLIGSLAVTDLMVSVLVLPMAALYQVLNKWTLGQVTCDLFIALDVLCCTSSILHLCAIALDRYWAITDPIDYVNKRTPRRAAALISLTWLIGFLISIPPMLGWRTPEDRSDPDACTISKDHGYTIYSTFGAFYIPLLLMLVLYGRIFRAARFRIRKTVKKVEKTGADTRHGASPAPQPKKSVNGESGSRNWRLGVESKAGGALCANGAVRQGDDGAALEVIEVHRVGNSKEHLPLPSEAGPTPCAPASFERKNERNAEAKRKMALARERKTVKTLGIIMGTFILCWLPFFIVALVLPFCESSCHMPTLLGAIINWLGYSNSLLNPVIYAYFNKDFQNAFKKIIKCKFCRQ
# Chain of panel of 68 receptors (Homo sapiens, UniProt P29274) (P29274 whole entry): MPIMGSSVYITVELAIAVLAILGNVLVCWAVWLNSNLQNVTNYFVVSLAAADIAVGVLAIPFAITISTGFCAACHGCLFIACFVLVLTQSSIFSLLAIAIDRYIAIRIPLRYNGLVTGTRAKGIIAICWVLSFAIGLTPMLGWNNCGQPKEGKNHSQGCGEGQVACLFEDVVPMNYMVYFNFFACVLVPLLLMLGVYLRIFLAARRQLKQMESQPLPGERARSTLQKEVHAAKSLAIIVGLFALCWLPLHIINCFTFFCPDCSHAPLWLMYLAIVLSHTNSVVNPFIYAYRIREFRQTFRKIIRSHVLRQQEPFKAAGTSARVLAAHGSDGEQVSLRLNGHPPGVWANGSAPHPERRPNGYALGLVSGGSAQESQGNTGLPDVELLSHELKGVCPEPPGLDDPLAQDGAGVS
# Chain of panel of 68 receptors (Homo sapiens, UniProt Q9UBS5) (Q9UBS5 20-961): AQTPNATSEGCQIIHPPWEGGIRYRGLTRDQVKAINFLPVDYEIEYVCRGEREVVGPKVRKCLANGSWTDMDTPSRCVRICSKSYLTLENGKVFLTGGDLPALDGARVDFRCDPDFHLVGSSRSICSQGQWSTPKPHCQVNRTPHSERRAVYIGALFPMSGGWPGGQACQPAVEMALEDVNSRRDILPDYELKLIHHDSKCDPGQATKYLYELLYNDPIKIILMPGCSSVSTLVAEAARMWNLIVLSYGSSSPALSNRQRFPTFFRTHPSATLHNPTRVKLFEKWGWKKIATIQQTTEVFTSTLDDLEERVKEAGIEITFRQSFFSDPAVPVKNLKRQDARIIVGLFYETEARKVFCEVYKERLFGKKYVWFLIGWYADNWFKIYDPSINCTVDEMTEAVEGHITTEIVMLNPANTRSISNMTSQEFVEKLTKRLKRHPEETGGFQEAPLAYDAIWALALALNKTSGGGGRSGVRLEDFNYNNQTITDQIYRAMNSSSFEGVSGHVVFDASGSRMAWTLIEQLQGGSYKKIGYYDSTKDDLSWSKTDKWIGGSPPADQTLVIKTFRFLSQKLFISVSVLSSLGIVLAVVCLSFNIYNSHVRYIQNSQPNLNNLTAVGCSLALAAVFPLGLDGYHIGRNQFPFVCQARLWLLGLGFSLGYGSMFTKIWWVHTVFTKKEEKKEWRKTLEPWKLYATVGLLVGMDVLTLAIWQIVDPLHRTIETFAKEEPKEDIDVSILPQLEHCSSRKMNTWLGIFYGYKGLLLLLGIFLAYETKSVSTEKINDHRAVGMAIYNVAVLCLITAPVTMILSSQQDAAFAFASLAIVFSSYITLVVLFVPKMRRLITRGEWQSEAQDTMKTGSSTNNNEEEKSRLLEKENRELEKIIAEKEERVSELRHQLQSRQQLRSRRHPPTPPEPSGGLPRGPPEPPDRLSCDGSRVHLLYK
# Chain of panel of 68 receptors (Homo sapiens, UniProt P25101) (P25101 21-427): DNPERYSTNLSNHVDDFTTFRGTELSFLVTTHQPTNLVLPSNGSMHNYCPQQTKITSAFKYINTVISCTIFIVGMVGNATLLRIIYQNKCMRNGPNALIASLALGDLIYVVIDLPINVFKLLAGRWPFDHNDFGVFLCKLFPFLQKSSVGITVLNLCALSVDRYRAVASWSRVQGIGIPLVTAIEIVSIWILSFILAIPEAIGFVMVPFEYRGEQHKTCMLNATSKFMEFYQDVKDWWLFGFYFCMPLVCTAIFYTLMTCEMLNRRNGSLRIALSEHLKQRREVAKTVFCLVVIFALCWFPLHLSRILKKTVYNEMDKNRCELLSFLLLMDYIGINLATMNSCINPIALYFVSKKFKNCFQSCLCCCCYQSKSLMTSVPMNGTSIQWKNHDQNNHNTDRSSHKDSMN
# Chain of panel of 68 receptors (Mus musculus, UniProt P13504) (P13504 20-576): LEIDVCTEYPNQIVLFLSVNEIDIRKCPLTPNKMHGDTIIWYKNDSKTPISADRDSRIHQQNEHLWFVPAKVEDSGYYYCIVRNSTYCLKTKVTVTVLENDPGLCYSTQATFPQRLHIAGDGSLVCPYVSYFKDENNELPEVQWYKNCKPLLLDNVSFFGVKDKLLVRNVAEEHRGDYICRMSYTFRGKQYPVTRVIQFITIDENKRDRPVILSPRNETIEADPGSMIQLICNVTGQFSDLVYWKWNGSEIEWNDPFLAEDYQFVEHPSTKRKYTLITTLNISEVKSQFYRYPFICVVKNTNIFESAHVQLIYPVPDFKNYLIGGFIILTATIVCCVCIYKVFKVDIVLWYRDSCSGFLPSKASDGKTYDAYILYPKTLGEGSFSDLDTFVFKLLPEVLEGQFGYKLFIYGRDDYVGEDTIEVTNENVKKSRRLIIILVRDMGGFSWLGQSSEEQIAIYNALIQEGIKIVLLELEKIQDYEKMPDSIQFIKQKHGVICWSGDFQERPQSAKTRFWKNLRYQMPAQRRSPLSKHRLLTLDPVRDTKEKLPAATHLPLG
# Chain of panel of 68 receptors (Homo sapiens, UniProt P08913) (P08913 whole entry): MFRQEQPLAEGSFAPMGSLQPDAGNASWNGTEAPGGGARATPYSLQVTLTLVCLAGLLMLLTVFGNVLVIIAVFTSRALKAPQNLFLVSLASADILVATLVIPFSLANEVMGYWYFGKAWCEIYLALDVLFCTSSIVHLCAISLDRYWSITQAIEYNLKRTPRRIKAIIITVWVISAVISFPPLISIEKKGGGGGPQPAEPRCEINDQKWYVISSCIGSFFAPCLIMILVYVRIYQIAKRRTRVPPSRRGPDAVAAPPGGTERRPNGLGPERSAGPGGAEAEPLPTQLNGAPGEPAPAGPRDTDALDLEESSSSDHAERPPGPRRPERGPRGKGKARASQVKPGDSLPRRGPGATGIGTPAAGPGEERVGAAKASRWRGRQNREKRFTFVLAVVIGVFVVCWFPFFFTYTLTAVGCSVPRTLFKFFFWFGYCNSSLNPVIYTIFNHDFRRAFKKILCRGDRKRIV
# Chain of panel of 68 receptors (Homo sapiens, UniProt P21728) (P21728 whole entry): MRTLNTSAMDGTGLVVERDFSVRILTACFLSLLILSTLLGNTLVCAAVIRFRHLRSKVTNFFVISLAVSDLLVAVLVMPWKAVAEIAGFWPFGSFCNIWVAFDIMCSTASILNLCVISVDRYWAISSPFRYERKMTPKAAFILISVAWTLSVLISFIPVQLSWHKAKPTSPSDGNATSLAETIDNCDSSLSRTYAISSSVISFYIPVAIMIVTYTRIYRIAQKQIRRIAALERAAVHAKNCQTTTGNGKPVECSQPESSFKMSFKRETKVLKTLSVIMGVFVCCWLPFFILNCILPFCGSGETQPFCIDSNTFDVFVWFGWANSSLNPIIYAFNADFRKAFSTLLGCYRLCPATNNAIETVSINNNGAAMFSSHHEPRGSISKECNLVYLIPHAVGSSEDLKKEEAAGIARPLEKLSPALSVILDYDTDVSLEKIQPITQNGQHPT
# Chain of panel of 68 receptors (Homo sapiens, UniProt P48039) (P48039 whole entry): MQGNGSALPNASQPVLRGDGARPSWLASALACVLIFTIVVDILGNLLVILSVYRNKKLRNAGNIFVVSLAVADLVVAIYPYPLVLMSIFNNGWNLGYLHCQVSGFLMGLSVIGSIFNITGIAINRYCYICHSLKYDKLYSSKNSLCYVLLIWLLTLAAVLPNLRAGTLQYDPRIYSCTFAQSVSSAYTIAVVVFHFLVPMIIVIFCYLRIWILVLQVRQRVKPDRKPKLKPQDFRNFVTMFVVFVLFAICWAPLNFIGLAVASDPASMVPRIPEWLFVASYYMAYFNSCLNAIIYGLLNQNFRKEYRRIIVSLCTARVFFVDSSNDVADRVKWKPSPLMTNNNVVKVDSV
compound,measurement,setting,value
CCOc1ccc(-c2cc(NC(=O)c3c(F)cccc3F)c(C(=O)O)s2)cc1 [KUC107784N-02],% Inh.,panel of 68 receptors [1],8%
same,% Inh.,panel of 68 receptors [2],9%
same,% Inh.,panel of 68 receptors [3],−2%
same,% Inh.,panel of 68 receptors [4],2%
same,% Inh.,panel of 68 receptors [5],4%
same,% Inh.,panel of 68 receptors [6],−1%
same,% Inh.,panel of 68 receptors [7],1%
same,% Inh.,panel of 68 receptors [8],14%
same,% Inh.,panel of 68 receptors [9],13%
same,% Inh.,panel of 68 receptors [10],5%
same,% Inh.,panel of 68 receptors [11],3%
same,% Inh.,panel of 68 receptors [12],2%
same,% Inh.,panel of 68 receptors [13],8%
same,% Inh.,panel of 68 receptors [14],7%
same,% Inh.,panel of 68 receptors [15],19%
same,% Inh.,panel of 68 receptors [16],6%
same,% Inh.,panel of 68 receptors [17],28%
same,% Inh.,panel of 68 receptors [18],2%
same,% Inh.,panel of 68 receptors [19],−4%
same,% Inh.,panel of 68 receptors [20],4%
same,% Inh.,panel of 68 receptors [21],14%
same,% Inh.,panel of 68 receptors [22],11%
same,% Inh.,panel of 68 receptors [23],−11%
same,% Inh.,panel of 68 receptors [24],3%
same,% Inh.,panel of 68 receptors [25],−3%
same,% Inh.,panel of 68 receptors [26],8%
same,% Inh.,panel of 68 receptors [27],5%
same,% Inh.,panel of 68 receptors [28],5%
same,% Inh.,panel of 68 receptors [29],0%
same,% Inh.,panel of 68 receptors [30],14%
same,% Inh.,panel of 68 receptors [31],3%
same,% Inh.,panel of 68 receptors [32],−5%
same,% Inh.,panel of 68 receptors [33],0%
same,% Inh.,panel of 68 receptors [34],−16%
